One experiment deals with PI3Kα (Homo sapiens (Human), UniProt P42336). Put plainly: PI3K alpha isoform inhibition. It is filed as biochemical. The following applies: 300 nM.
A further experiment has as its target PI3Kδ (Homo sapiens (Human), UniProt O00329). Put plainly: PI3K delta isoform inhibition. The experiment is classed as biochemical. The settings on record: 300 nM. The source says:
Inhibitory activity can be determined routinely using known methods and also from commercial vendors offering this service for kinases and bromodomain proteins. […] In vivo, PI3K inhibition can be determined from target tissue biopsies by standard tissue processing to disrupt cells and then performing Western Blot analysis to determine the presence or absence of pAKT (substrate of PI3K) relative to a control sample. The activity of a compound of the invention as an inhibitor of a bromodomain-containing protein, such as a BET protein, such as BRD2, BRD3, BRD4, and/or BRDT, or an isoform or mutant thereof, may be determined in vitro, in vivo, or in a cell line. In vitro assays include assays that determine inhibition of bromodomain-containing proteins. Alternatively, inhibitor binding may be determined by running a competition experiment where a provided compound is incubated with a bromodomain-containing protein, such as a BET protein bound to known ligands, labeled or unlabeled. For example, bromodomain inhibition can be determined in vitro using Alpha Screen Technology (http://www.reactionbiology.com/webapps/site/NewsPDFs/Bromodomain%20Assay%20Platform%20for%20Drug%20Screening%20and%20Discovery.pdf). […]

In a further experiment the target is PI3Kγ (Homo sapiens (Human), UniProt P48736). Briefly: PI3K gamma isoform inhibition. The settings on record: 300 nM. It is filed as biochemical.
In another experiment the target is BRD4 (Homo sapiens, UniProt O60885). Put plainly: BRD4 inhibition assay (region not specified). The experiment is classed as binding.
The subject of a further experiment is HDAC. Briefly: HDAC inhibitory activity, commercial kit. It is filed as biochemical. The following applies: for HDAC inhibitory activity: 1, 10, 50 μM.
In experiment [1] the test system is pAKT serine 473 in PC3 cells. Briefly: Cellular PI3K inhibition, pAKT ELISA in PC3 cells. The experiment is classed as cell-based. The following applies: Homo sapiens, PC-3; IGF-1 stimulated PC3 cells. The method, then: Biological testing of compounds of Formula I. Representative compounds of the invention were tested for cellular PI3K inhibitory activity (as measured by the most robust marker of pathway activity pAKT) in a prostate cancer cell line (PC3), which is summarized in Table 3. […] Two million cells from the prostate cancer line PC3 were placed into 6 cm culture dishes and allowed to grow in complete RPMI 1640 media (Invitrogen, Carlsbad, Calif., Cat.#22400-105) with 10% fetal bovine serum (Invitrogen, Carlsbad, Calif., Cat.#10438-026). After this time period the cells were serum starved for 5 hours followed by application of the test compound. Test compound was added as a DMSO (dimethyl sulfoxide) solution such that the final DMSO concentration in the cell media was less than or equal to 0.2% by volume. After 30 minutes of exposure the growth factor stimulant, human IGF-1 (PeproTech, Inc., Rocky Hill, N.J., Cat.#100-11), was added in each well. After 30 minutes of IGF-1 exposure, cells were removed from the media and cell lysates were prepared using RIPA Lysis buffer (Upstate, Lake Placid, N.Y., Cat.#20-188), keeping on ice. The pAKT serine 473 level was measured in duplicate samples of the cell lysates using commercially available assays such as the Pathscan® Sandwich ELISA kit for Ser473 pAKT (Cell Signaling, Danvers, Mass., Cat.#7160). A SpectraMax Plus spectrophotometric plate reader (Molecular Devices, Sunnydale, Calif.) was used to measure the optical density signal for pAKT at 450 nm (OD450 nm). The pAKT OD450 nm readings were normalized by total protein amount in the cell lysates determined by standard methods.
In general terms: An ELISA detects its analyte on a solid surface through an enzyme-linked reagent.

For another experiment, the system named is p-AKT(Ser473). Briefly: Western blot of pAKT in SKNBE(2) cells. The settings on record: 24 hrs treatment, 50 ng/ml IGF stimulation. It is filed as cell-based, human. The method, then: (§1) Cells were stimulated with 50 ng/ml IGF for 30 min and used for lysate preparation. Proteins were quantitated by the BCA protein assay (Pierce). Equal amounts of protein were resolved by polyacrylamide gels, transferred to nitrocellulose membrane and probed by Western blot with the following primary antibodies: p-AKT(Ser473), AKT (Cell Signaling Technologies), N-MYC, CyclinD1 and β-actin (Santa Cruz Biotechnology).
For orientation: A western blot detects proteins with antibodies after separation by electrophoresis.

The next experiment relates to breast cancer stem cells. The following applies: women with breast tumors with high HER2; decreased from 11%; cited from earlier work.
For a further experiment, the system named is MYCN promoter region. Briefly: Brd4 chromatin precipitation with quantitative PCR of MYCN promoter in SKNBE(2) cells. The experiment is classed as cell-based, human. The following applies: 24 hours exposure. How it is done: MYCN amplified SKNBE(2) cells were exposed to inhibitors for 24 hours then chromatin was precipitated with Brd4 (rabbit polyclonal antibody) along with rabbit IgG as a negative control (IgG). Precipitated chromatin was analyzed for the MYCN gene (2 sites within the MYCN promoter region) by quantitative PCR and enrichment is shown as the percentage of total input DNA (FIG. 4). The negative control region primers amplify within a gene desert region approximately 1 Mb away from MYCN (MYC-N NR). Error bars represent±SEM of triplicate data. P<0.05 as compared to positive control (paired t-test).

The target in a further experiment is BRD4-1 (Homo sapiens (Human), UniProt O60885). The settings on record: cited from earlier work.
The next experiment relates to N-MYC. Put plainly: Western blot of N-MYC in SKNBE(2) cells. The following applies: 24 hrs treatment, 50 ng/ml IGF stimulation. It is filed as cell-based, human. How it is done: as §1
The test system of the next experiment is PI-3 kinases. The settings on record: cited from earlier work.
In the next experiment the test system is BET bromodomains. The settings on record: cited from earlier work.

Chain of PI3Kγ (P48736 whole entry, canonical isoform): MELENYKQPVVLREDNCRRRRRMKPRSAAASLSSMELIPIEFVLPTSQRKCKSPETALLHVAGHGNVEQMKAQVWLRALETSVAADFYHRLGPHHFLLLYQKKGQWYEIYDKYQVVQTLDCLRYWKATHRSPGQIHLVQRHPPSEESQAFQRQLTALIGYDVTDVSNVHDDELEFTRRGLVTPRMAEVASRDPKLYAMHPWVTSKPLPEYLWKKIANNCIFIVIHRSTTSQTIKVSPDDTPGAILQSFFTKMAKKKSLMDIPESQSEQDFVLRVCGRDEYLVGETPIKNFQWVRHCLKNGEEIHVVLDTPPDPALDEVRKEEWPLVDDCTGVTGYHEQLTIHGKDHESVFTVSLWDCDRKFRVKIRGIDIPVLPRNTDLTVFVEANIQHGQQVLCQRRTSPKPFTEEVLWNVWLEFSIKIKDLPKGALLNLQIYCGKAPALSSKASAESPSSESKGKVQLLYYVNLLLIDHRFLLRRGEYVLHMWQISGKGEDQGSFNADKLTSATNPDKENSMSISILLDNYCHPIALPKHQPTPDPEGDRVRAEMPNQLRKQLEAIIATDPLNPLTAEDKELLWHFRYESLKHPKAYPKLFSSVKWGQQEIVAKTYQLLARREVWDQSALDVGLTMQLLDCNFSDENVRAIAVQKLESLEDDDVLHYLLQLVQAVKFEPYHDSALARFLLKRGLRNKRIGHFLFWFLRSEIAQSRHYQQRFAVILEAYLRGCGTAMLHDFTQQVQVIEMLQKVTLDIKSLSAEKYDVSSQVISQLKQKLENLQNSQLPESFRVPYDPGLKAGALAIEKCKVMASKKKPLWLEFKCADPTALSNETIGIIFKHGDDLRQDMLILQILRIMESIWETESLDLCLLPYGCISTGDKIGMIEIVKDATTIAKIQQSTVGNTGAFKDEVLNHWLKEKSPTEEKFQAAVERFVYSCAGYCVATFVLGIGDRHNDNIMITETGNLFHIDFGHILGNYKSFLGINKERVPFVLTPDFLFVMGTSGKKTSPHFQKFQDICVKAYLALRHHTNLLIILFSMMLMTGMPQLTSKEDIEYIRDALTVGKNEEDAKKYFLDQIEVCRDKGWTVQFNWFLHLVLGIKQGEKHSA
Chain of PI3Kδ (O00329 whole entry, canonical isoform): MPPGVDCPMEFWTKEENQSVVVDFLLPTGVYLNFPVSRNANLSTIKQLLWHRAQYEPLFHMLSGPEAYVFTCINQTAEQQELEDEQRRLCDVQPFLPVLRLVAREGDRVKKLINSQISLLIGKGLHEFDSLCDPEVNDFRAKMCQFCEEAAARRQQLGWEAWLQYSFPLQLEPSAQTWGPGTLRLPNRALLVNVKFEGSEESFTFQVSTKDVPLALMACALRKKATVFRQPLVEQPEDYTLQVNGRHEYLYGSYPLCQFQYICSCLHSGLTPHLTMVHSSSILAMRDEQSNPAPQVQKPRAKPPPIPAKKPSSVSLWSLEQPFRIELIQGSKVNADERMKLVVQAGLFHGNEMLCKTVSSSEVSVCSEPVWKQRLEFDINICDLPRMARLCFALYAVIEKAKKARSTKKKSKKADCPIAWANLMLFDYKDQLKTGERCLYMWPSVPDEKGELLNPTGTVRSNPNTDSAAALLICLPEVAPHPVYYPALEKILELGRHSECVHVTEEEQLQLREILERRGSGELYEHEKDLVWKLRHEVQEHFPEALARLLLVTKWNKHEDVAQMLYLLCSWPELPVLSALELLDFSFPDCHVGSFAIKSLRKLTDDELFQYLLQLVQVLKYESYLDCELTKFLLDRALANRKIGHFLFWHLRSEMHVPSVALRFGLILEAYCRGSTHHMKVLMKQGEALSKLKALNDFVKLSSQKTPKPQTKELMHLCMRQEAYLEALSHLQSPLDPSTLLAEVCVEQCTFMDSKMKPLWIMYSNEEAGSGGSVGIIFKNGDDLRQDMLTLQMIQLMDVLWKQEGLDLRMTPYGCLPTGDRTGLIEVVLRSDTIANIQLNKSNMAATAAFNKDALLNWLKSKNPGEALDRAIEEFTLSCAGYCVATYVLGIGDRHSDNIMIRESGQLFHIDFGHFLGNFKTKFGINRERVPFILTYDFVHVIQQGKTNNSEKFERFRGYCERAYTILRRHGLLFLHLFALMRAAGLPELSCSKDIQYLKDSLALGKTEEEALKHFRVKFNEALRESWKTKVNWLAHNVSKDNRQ
Chain of PI3Kδ (P27986 whole entry partner, canonical isoform): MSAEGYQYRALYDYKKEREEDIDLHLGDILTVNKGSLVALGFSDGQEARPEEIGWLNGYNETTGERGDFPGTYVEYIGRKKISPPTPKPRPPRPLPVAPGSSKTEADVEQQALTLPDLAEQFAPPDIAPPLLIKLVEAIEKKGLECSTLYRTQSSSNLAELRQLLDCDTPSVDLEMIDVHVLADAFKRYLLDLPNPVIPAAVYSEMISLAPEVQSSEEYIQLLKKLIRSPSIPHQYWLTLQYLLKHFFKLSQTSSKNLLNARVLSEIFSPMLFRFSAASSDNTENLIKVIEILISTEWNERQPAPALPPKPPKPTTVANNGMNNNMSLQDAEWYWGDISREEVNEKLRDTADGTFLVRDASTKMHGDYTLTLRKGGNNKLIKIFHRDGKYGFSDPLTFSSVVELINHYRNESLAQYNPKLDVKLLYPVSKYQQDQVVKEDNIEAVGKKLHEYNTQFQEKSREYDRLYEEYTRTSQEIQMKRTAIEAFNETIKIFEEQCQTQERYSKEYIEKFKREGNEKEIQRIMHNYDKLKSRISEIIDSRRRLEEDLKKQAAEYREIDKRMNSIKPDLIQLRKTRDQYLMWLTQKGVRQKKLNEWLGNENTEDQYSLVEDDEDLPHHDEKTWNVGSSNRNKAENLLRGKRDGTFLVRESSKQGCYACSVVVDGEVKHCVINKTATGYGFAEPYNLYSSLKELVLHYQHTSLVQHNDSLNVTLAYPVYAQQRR
Chain of PI3Kα (P42336 whole entry, canonical isoform): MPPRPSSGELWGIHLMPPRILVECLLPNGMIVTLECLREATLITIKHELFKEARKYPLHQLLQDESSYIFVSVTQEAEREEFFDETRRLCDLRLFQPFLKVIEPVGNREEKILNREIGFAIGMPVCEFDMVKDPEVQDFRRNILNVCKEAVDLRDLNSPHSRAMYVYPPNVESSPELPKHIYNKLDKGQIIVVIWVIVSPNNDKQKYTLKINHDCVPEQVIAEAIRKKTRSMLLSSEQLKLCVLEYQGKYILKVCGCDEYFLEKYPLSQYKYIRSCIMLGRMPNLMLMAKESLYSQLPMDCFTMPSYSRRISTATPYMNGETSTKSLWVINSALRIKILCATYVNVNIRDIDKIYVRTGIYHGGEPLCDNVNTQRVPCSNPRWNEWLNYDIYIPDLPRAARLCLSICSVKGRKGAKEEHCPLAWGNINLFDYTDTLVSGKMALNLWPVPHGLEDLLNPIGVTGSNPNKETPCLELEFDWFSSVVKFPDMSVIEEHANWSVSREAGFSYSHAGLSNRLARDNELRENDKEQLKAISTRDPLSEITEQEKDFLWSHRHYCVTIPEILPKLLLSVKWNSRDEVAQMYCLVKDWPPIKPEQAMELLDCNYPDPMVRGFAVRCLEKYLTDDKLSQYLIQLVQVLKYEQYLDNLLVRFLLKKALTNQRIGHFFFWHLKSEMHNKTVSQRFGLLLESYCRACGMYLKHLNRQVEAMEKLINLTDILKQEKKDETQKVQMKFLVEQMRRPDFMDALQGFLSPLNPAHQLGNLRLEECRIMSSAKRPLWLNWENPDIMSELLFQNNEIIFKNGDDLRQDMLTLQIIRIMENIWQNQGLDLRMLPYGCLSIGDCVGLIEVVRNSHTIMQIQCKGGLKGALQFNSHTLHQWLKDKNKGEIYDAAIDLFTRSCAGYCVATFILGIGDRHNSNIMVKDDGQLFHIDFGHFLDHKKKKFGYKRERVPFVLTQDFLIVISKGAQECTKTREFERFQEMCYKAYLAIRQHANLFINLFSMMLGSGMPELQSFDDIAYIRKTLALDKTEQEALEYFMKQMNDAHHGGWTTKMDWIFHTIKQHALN
Chain of PI3Kα (P27986 whole entry partner, canonical isoform): as the sequence (P27986 whole entry partner, canonical isoform) above

As to `COC(=O)c1ccc(-c2csc3c(=O)cc(N4CCOCC4)oc23)cc1` [Cmpd 44, Methyl 4-(5-morpholino-7-oxo-7H-thieno[3,2-b]pyran-3-yl)benzoate], the inhibition (commonly the relative decrease from the control value, in per cent) at 0.3 µM against PI3Kα stood at 53%; against PI3Kδ, 81%; on PI3Kγ, 26%. The BRD4 inhibition result at BRD4 was “showed activity against BRD4 regions 1 and 2”. Further, the HDAC inhibitory activity entry in the experiment with HDAC was “No inhibitor activity”. For the molecule `O=c1cc(N2CCOCC2)oc2c(Cc3ccccc3)csc12` [Cmpd 1], the 50% inhibitory concentration (IC50) (usually the concentration at which inhibition is half-maximal) in experiment [1] came to 0.864 µM.

The molecule `O=c1cc(N2CCOCC2)oc2c(C#Cc3ccsc3)csc12` [Cmpd 23] displayed an IC50 in experiment [1] of 1.27 µM.

Take `Nc1cc(C(F)(F)F)c(-c2cc(N3CCOCC3)nc(N3CCOCC3)n2)cn1` [BKM120, reference compound]: the BRD4 inhibition entry at BRD4 is given as “no BRD4 inhibition”. In the experiment with p-AKT(Ser473), the “pAKT level by Western blot” value is “decreased pAKT”. On to `CS(=O)(=O)CCNCc1ccc(-c2ccc3ncnc(Nc4ccc(OCc5cccc(F)c5)c(Cl)c4)c3c2)o1` [Lapatinib], for which the “breast cancer stem cells in biopsies after treatment” value in the experiment with breast cancer stem cells is on record as 5 % of cells. For `O=c1cc(N2CCOCC2)oc2c(-c3ccco3)csc12` [Cmpd 4], in [1], the IC50 turned out to be 0.93 µM.

In turn, `O=c1cc(N2CCOCC2)oc2c(-c3ccoc3)csc12` [Cmpd 27] came in with a concentration for half-maximal inhibition (IC50) in [1] of 3.23 µM. The molecule `COc1cccc(-c2csc3c(=O)cc(N4CCOCC4)oc23)c1` [Cmpd 29] registered a half-inhibitory concentration (IC50) in [1] of 1.07 µM.

The molecule `O=c1cc(N2CCOCC2)oc2c(-c3ccc4c(c3)OCO4)csc12` [Cmpd 7] registered an IC50 in experiment [1] of 0.54 µM.

For `CC[C@H](Nc1ncnc2[nH]cnc12)c1nc2cccc(F)c2c(=O)n1-c1ccccc1` [CAL101], at BRD4, the BRD4 inhibition entry is reported as “no BRD4 inhibition”. In addition, the “pAKT level by Western blot” value with p-AKT(Ser473) is on record as “decreased pAKT”. In addition, the “MYCN expression (Brd4-precipitated chromatin, MYCN promoter PCR)” value (“MYCN expression” for short) in the experiment with MYCN promoter region is “did not”. On to `Cc1cnc(Nc2ccc(OCCN3CCCC3)cc2)nc1Nc1cccc(S(=O)(=O)NC(C)(C)C)c1` [TG-101348], for which the BRD4-1 inhibition result on BRD4-1 is recorded as “some degree of BRD4-1 inhibitory activity”. As for `Cc1cnc(Nc2ccc(N3CCN(C)CC3)cc2)nc1Nc1cccc(S(=O)(=O)NC(C)(C)C)c1` [TG101209], the BRD4-1 inhibition result on BRD4-1 is on record as “potently inhibit”.

For the molecule `O=c1cc(N2CCOCC2)oc2c(-c3cccs3)csc12` [Cmpd 14], in experiment [1], the IC50 was 1.02 µM.

Consider `Nc1cccc(-c2csc3c(=O)cc(N4CCOCC4)oc23)c1` [Cmpd 11, 3-(3-Amino-phenyl)-5-morpholin-4-yl-thieno[3,2-b]pyran-7-one], for which, in experiment [1], the half-maximal inhibitory concentration (IC50) is 6.32 µM. Turning to `Cc1c(Cn2c(C)nc3c(C(=O)O)cc(N4CCOCC4)cc32)cccc1C(F)(F)F` [GSK2636771], the BRD4-1 inhibition result at BRD4-1 was “some degree of BRD4-1 inhibitory activity”. In experiment [1], `Cc1ccc(-c2csc3c(=O)cc(N4CCOCC4)oc23)cc1` [Cmpd 15] came in with an IC50 of 0.948 µM. With `Cn1c(=O)n(-c2ccc(C(C)(C)C#N)cc2)c2c3cc(-c4cnc5ccccc5c4)ccc3ncc21` [BEZ235], the “pAKT level by Western blot” value in the experiment on p-AKT(Ser473) is given as “decreased pAKT”. `COc1ccc(-c2csc3c(=O)cc(N4CCOCC4)oc23)cc1` [Cmpd 8] displayed an IC50 in experiment [1] of 0.98 µM. `COC(=O)c1scc(-c2csc3c(=O)cc(N4CCOCC4)oc23)c1O` [Cmpd 21] displayed an IC50 in experiment [1] of 1.04 µM. As for `O=C(NO)c1ccc(-c2csc3c(=O)cc(N4CCOCC4)oc23)cc1` [Cmpd 118], the inhibition at 0.3 µM against PI3Kα worked out at 76%; at PI3Kδ it was 80%; on PI3Kγ it was 30%. The “HDAC activity inhibition versus control” value with HDAC (1 μM) is listed as 17%; with HDAC (10 μM), 25%; in the experiment on HDAC (50 μM) it was 41%. Besides, the HDAC inhibitory activity result in the experiment on HDAC is “significant HDAC inhibitory activity”. `O=c1cc(N2CCOCC2)oc2c(-c3ccsc3)csc12` [Cmpd 26]: the IC50 in experiment [1] stood at 1.56 µM. Turning to `O=c1cc(N2CCOCC2)oc2c(-c3ccncc3)csc12` [Cmpd 2], in experiment [1], half-maximal inhibition (IC50) was put at 3.03 µM. On the same count and under the same terms, then `O=c1cc(N2CCOCC2)oc2c(-c3ccc(Cl)c(Cl)c3)csc12` [Cmpd 18], with 0.913 µM.

Take `O=c1cc(N2CCNCC2)oc2c(-c3ccccc3)cccc12` [LY303511]: the “MYCN quantity by Western blot” value in the experiment with N-MYC is “inhibited only MYCN quantities”. Also, in the experiment with MYCN promoter region, the “MYCN expression” value is on record as “significantly repressed MYCN expression”. In addition, in the experiment on PI-3 kinases, the PI3K inhibition activity result is reported as “lose PI3K inhibition activity”. The BET bromodomain inhibition result in the experiment on BET bromodomains is reported as “retain BET bromodomain inhibition”. With `CC(C)n1nc(-c2cc3cc(O)ccc3[nH]2)c2c(N)ncnc21` [PP-242], the BRD4-1 inhibition entry on BRD4-1 is on record as “some degree of BRD4-1 inhibitory activity”. In [1], `Cc1cccc(-c2csc3c(=O)cc(N4CCOCC4)oc23)c1` [Cmpd 16] displayed an IC50 of 1.23 µM. Turning to `O=c1cc(N2CCOCC2)oc2c(C#CCO)csc12` [Cmpd 24], half-maximal inhibition in experiment [1] (IC50) required 4.61 µM.

`CN(C)c1ccc(-c2csc3c(=O)cc(N4CCOCC4)oc23)cc1` [Cmpd 9] displayed a half-inhibitory concentration (IC50) in experiment [1] of 0.78 µM. As to `O=c1cc(N2CCOCC2)oc2c(-c3cc4ccccc4[nH]3)csc12` [Cmpd 12], in [1], the IC50 is 1.57 µM. `CN1CCOc2cc(-c3csc4c(=O)cc(N5CCOCC5)oc34)ccc21` [Cmpd 22]: the IC50 in experiment [1] stood at 0.609 µM. In the case of `O=c1cc(N2CCOCC2)oc2c(-c3ccccc3)cccc12` [LY294002, 2-(4-morpholinyl)-8-phenyl-4H-1-benzopyran-4-one], in the experiment with p-AKT(Ser473), the “pAKT level by Western blot” value was “decreased MYCN and pAKT”. For the same molecule, the “MYCN quantity by Western blot” value in the experiment with N-MYC is reported as “decreased MYCN”. In addition, the “MYCN expression” value with MYCN promoter region is on record as “significantly repressed MYCN expression”. Also, the BET bromodomain inhibition entry in the experiment on BET bromodomains is “modestly inhibit”. With `CN(c1ccccc1CNc1nc(Nc2ccc3c(c2)CC(=O)N3)ncc1C(F)(F)F)S(C)(=O)=O` [PF-431396], the BRD4-1 inhibition result at BRD4-1 was “some degree of BRD4-1 inhibitory activity”. `O=c1cc(N2CCOCC2)oc2c(-c3ccc4[nH]ccc4c3)csc12` [Cmpd 19]: in experiment [1], the midpoint of inhibition, the IC50, lay at 0.901 µM. Take `N#Cc1ccc(-c2csc3c(=O)cc(N4CCOCC4)oc23)cc1` [Cmpd 5]: the half-inhibitory concentration (IC50) in [1] was 7.3 µM. The same measure, in the same setting: then `O=c1cc(N2CCOCC2)oc2c(-c3cccnc3)csc12` [Cmpd 3], with 4.87 µM; and `O=c1cc(N2CCOCC2)oc2c(-c3ccccc3)csc12` [Cmpd 6], with 0.55 µM; and `O=c1cc(N2CCOCC2)oc2c(-c3ccc(Cl)cc3)csc12` [Cmpd 17], with 1.41 µM.

(Values after patent publication US10308662B2, “Thienopyranones as kinase and epigenetic inhibitors” (SignalRx Pharmaceuticals, Inc., priority 2014, dated 2019).)
